Source: patent publication US9067922B2, “Chemical compounds” (Pfizer Limited, priority 2013, dated 2015)

The compounds below were run against URAT-1 transporter (Homo sapiens (Human), UniProt Q96S37) (assay: URAT-1 inhibitor activity: [14C]-uric acid uptake in CHO-URAT1(L)GFP#8 (CHO#8) cells, scintillation proximity). Settings: inhibition of [14C]-uric acid (30 nM) uptake into CHO#8 cells; compound 0 to 10 μM; 4 parameter logistic fit.
Chain of URAT-1 transporter (Q96S37 other isoform, or with tags, fused parts or gaps): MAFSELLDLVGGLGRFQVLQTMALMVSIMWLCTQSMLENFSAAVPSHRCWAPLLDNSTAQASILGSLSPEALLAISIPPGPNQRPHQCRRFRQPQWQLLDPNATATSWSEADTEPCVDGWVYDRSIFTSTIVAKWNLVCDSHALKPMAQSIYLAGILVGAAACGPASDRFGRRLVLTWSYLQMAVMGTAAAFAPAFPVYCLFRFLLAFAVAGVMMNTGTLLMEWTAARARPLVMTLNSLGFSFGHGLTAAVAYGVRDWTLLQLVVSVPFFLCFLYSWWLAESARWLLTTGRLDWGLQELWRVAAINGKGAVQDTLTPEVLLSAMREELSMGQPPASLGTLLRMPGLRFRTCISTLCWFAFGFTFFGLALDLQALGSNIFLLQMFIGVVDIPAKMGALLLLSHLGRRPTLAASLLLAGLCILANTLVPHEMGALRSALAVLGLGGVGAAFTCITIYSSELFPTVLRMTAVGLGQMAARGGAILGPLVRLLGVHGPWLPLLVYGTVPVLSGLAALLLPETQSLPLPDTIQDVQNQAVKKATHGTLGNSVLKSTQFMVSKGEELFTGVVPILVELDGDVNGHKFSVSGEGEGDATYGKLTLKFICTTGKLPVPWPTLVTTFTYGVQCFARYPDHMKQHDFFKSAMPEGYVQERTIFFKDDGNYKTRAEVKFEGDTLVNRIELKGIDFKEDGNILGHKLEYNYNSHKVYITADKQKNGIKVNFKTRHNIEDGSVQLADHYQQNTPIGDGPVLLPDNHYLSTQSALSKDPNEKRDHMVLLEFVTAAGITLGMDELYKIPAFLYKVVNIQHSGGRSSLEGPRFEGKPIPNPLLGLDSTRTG
Assay type: cell-based
Summary of the method: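 CHO cells stably expressing human URAT1 long isoform–eGFP fusion, pre-incubated 1 h in chloride-containing buffer pH 7.4, then given 30 nM [14C]-uric acid with compound (0–10 μM, 0.25% DMSO) in chloride-free gluconate buffer pH 7.4. Uptake measured by scintillation proximity on Cytostar plates.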
`CC(C)(C)c1cc(Oc2ccc(S(=O)(=O)Nc3ccc(F)cn3)cc2C#N)ccc1C#N` [Example 161, 4-(3-tert-butyl-4-cyanophenoxy)-3-cyano-N-(5-fluoropyridin-2-yl)benzenesulfonamide] was tested, and the IC50 was over 10000 nM.
For `Cc1cc(Oc2ccc(S(=O)(=O)Nc3ccc(F)cn3)cc2C#N)c(Cl)cc1Cl` [Example 109, 3-cyano-4-(2,4-dichloro-5-methylphenoxy)-N-(5-fluoropyridin-2-yl)benzenesulfonamide], the IC50 was 892 nM.
With `COc1cc(F)cc(Oc2ccc(S(=O)(=O)Nc3ccc(F)cn3)cc2C#N)c1` [Example 8, 3-cyano-4-(3-fluoro-5-methoxyphenoxy)-N-(5-fluoropyridin-2-yl)benzenesulfonamide] the IC50 was 119 nM.
Compound `N#Cc1cc(S(=O)(=O)Nc2ccc(F)cn2)ccc1Oc1c(F)ccc(F)c1F` [Example 134, 3-cyano-N-(5-fluoropyridin-2-yl)-4-(2,3,6-trifluorophenoxy)benzenesulfonamide] has an IC50 of over 10000 nM.
`Cc1ccc(Cl)c(C)c1Oc1ccc(S(=O)(=O)Nc2ccc(F)cn2)cc1C#N` [Example 169, 4-(3-chloro-2,6-dimethylphenoxy)-3-cyano-N-(5-fluoropyridin-2-yl)benzenesulfonamide] gave an IC50 of 134 nM.
Work on `N#Cc1cc(Cl)ccc1Oc1ccc(S(=O)(=O)Nc2ccc(F)cn2)cc1C#N` [Example 45, 4-(4-chloro-2-cyanophenoxy)-3-cyano-N-(5-fluoropyridin-2-yl)benzenesulfonamide] yielded an IC50 of 174 nM.
Compound `N#Cc1cc(S(=O)(=O)Nc2ccc(F)cn2)ccc1Oc1cc(F)cc(F)c1` [Example 11, 3-cyano-4-(3,5-difluorophenoxy)-N-(5-fluoropyridin-2-yl)benzenesulfonamide] has an IC50 of 125 nM.
`COc1cc(C#N)ccc1Oc1ccc(S(=O)(=O)Nc2ccc(F)cn2)cc1C#N` [Example 204, 3-cyano-4-(4-cyano-2-methoxyphenoxy)-N-(5-fluoropyridin-2-yl)benzenesulfonamide] showed an IC50 of over 10000 nM.
With `COc1c(F)ccc(Oc2ccc(S(=O)(=O)Nc3ccc(F)cn3)cc2C#N)c1C` [Example 165, 3-cyano-4-(4-fluoro-3-methoxy-2-methylphenoxy)-N-(5-fluoropyridin-2-yl)benzenesulfonamide] the IC50 was 139 nM.
`CC(C)c1ccccc1Oc1ccc(S(=O)(=O)Nc2ccc(F)cn2)cc1C#N` [Example 49, 3-cyano-N-(5-fluoropyridin-2-yl)-4-[2-(propan-2-yl)phenoxy]benzenesulfonamide] gave an IC50 of over 1380 nM.
Compound `N#Cc1cc(S(=O)(=O)Nc2ccc(F)cn2)ccc1Oc1cc(F)cc(Cl)c1` [Example 28, 4-(3-chloro-5-fluorophenoxy)-3-cyano-N-(5-fluoropyridin-2-yl)benzenesulfonamide] has an IC50 of 92 nM.
Compound `COc1ccc(C#N)cc1Oc1ccc(S(=O)(=O)Nc2ccc(F)cn2)cc1C#N` [Example 197, 3-cyano-4-(5-cyano-2-methoxyphenoxy)-N-(5-fluoropyridin-2-yl)benzenesulfonamide] has an IC50 of over 10000 nM.
Compound `N#Cc1cc(S(=O)(=O)Nc2ccc(F)cn2)ccc1Oc1cnc(C2CC2)c(Cl)c1` [Example 180, 4-[(5-chloro-6-cyclopropylpyridin-3-yl)oxy]-3-cyano-N-(5-fluoropyridin-2-yl)benzenesulfonamide] has an IC50 of 877 nM.
`COc1cc(C)ccc1Oc1ccc(S(=O)(=O)Nc2ccc(F)cn2)cc1C#N` [Example 140, 3-cyano-N-(5-fluoropyridin-2-yl)-4-(2-methoxy-4-methylphenoxy)benzenesulfonamide] gave an IC50 of over 10000 nM.
Compound `N#Cc1ccc(Oc2cc(F)c(S(=O)(=O)Nc3ccc(F)cn3)cc2F)cc1F` [Example 95, 4-(4-cyano-3-fluorophenoxy)-2,5-difluoro-N-(5-fluoropyridin-2-yl)benzenesulfonamide] has an IC50 of over 10000 nM.
Compound `N#Cc1cc(Oc2cc(F)c(S(=O)(=O)Nc3ncccn3)cc2Cl)ccc1F` [Example 225, 5-chloro-4-(3-cyano-4-fluorophenoxy)-2-fluoro-N-(pyrimidin-2-yl)benzenesulfonamide] has an IC50 of 2330 nM.
`N#Cc1cc(S(=O)(=O)Nc2ccc(F)cn2)ccc1Oc1ccccc1OC(F)(F)F` [Example 27, 3-cyano-N-(5-fluoropyridin-2-yl)-4-[2-(trifluoromethoxy)phenoxy]benzenesulfonamide] gave an IC50 of 274 nM.
`CCc1ccccc1Oc1ccc(S(=O)(=O)Nc2ccc(F)cn2)cc1C#N` [Example 46, 3-cyano-4-(2-ethylphenoxy)-N-(5-fluoropyridin-2-yl)benzenesulfonamide] showed an IC50 of 107 nM.
`Cc1cc(Cl)ccc1Oc1ccc(S(=O)(=O)Nc2ccc(F)cn2)cc1C#N` [Example 5, 4-(4-chloro-2-methylphenoxy)-3-cyano-N-(5-fluoropyridin-2-yl)benzenesulfonamide] gave an IC50 of 148 nM.
For `N#Cc1cc(S(=O)(=O)Nc2ccc(F)cn2)ccc1Oc1cc(C(F)(F)F)ccc1F` [Example 4, 3-cyano-N-(5-fluoropyridin-2-yl)-4-[2-fluoro-5-(trifluoromethyl)phenoxy]benzenesulfonamide], the IC50 was over 10000 nM.
In the case of `O=S(=O)(Nc1cccnn1)c1cc(Cl)c(Oc2ccc(Cl)cc2OC(F)F)cc1F` [Example 85, 5-chloro-4-[4-chloro-2-(difluoromethoxy)phenoxy]-2-fluoro-N-(pyridazin-3-yl)benzenesulfonamide], the IC50 is reported as over 10000 nM.
`N#Cc1cc(S(=O)(=O)Nc2ccc(F)cn2)ccc1Oc1cnc(OC(F)F)c(Cl)c1` [compound 231] gave an IC50 of 53 nM.
`N#Cc1cc(S(=O)(=O)Nc2ccc(F)cn2)ccc1Oc1ccccn1` [Example 187, 3-cyano-N-(5-fluoropyridin-2-yl)-4-(pyridin-2-yloxy)benzenesulfonamide] showed an IC50 of over 10000 nM.
Work on `Cc1ccccc1Oc1ccc(S(=O)(=O)Nc2ccc(F)cn2)cc1C#N` [Example 186, 3-cyano-N-(5-fluoropyridin-2-yl)-4-(2-methylphenoxy)benzenesulfonamide] yielded an IC50 of 324 nM.
`N#Cc1cc(S(=O)(=O)Nc2ccc(F)cn2)ccc1Oc1cc(F)c(F)cc1F` [Example 130, 3-cyano-N-(5-fluoropyridin-2-yl)-4-(2,4,5-trifluorophenoxy)benzenesulfonamide] gave an IC50 of 119 nM.
`COc1cc(Cl)ccc1Oc1ccc(S(=O)(=O)Nc2cccnn2)cc1Cl` [Example 81, 3-chloro-4-(4-chloro-2-methoxyphenoxy)-N-(pyridazin-3-yl)benzenesulfonamide] gave an IC50 of over 10000 nM.
For `N#Cc1ccc(Oc2c(F)cc(S(=O)(=O)Nc3ccc(F)cn3)cc2C#N)cc1Cl` [Example 248, 4-(3-chloro-4-cyanophenoxy)-3-cyano-5-fluoro-N-(5-fluoropyridin-2-yl)benzenesulfonamide], the IC50 was 324 nM.
`CCOc1ncc(Oc2ccc(S(=O)(=O)Nc3ccc(F)cn3)cc2C#N)cc1Cl` [Example 125, 4-[(5-chloro-6-ethoxypyridin-3-yl)oxy]-3-cyano-N-(5-fluoropyridin-2-yl)benzenesulfonamide] gave an IC50 of 237 nM.
Compound `N#Cc1cc(S(=O)(=O)Nc2ccc(F)cn2)ccc1Oc1ccc(Cl)c(Cl)c1` [Example 122, 3-cyano-4-(3,4-dichlorophenoxy)-N-(5-fluoropyridin-2-yl)benzenesulfonamide] has an IC50 of 99 nM.
Work on `N#Cc1cc(S(=O)(=O)Nc2ccc(F)cn2)ccc1Oc1ccc(F)c(F)c1Cl` [Example 167, 4-(2-chloro-3,4-difluorophenoxy)-3-cyano-N-(5-fluoropyridin-2-yl)benzenesulfonamide] yielded an IC50 of 50 nM.
With `N#Cc1ccc(Oc2ccc(S(=O)(=O)Nc3ncccc3F)cc2C#N)cc1Cl` [Example 103, 4-(3-chloro-4-cyanophenoxy)-3-cyano-N-(3-fluoropyridin-2-yl)benzenesulfonamide] the IC50 was 145 nM.
`N#Cc1cc(S(=O)(=O)Nc2ccc(F)cn2)ccc1Oc1cc(F)ccc1Cl` [Example 176, 4-(2-chloro-5-fluorophenoxy)-3-cyano-N-(5-fluoropyridin-2-yl)benzenesulfonamide] showed an IC50 of 1020 nM.
With `N#Cc1c(Cl)cccc1Oc1ccc(S(=O)(=O)Nc2ccccn2)cc1` [Example 218, 4-(3-chloro-2-cyanophenoxy)-N-(pyridin-2-yl)benzenesulfonamide] the IC50 was over 10000 nM.
`N#Cc1cc(S(=O)(=O)Nc2ccc(F)cn2)ccc1Oc1ccc(F)c(F)c1F` [Example 157, 3-cyano-N-(5-fluoropyridin-2-yl)-4-(2,3,4-trifluorophenoxy)benzenesulfonamide] was tested, and the IC50 was 51 nM.
With `COc1cccnc1NS(=O)(=O)c1ccc(Oc2ccc(C#N)c(Cl)c2)c(C#N)c1` [Example 102, 4-(3-chloro-4-cyanophenoxy)-3-cyano-N-(3-methoxypyridin-2-yl)benzenesulfonamide] the IC50 was 3130 nM.
`N#Cc1ccc(Oc2ccc(S(=O)(=O)Nc3ccc(F)cn3)c(F)c2)cc1F` [Example 99, 4-(4-cyano-3-fluorophenoxy)-2-fluoro-N-(5-fluoropyridin-2-yl)benzenesulfonamide] was tested, and the IC50 was 29 nM.
For `CCc1ccc(Oc2ccc(S(=O)(=O)Nc3ccc(F)cn3)cc2C#N)cc1` [Example 50, 3-cyano-4-(4-ethylphenoxy)-N-(5-fluoropyridin-2-yl)benzenesulfonamide], the IC50 was over 10000 nM.
With `N#Cc1cc(S(=O)(=O)Nc2ccc(F)cn2)ccc1Oc1ccc(OC(F)(F)F)cc1` [Example 35, 3-cyano-N-(5-fluoropyridin-2-yl)-4-[4-(trifluoromethoxy)phenoxy]benzenesulfonamide] the IC50 was over 10000 nM.
Work on `COc1ccc(Oc2ccc(S(=O)(=O)Nc3ccc(F)cn3)cc2C#N)c(Cl)c1` [Example 168, 4-(2-chloro-4-methoxyphenoxy)-3-cyano-N-(5-fluoropyridin-2-yl)benzenesulfonamide] yielded an IC50 of 612 nM.
`O=S(=O)(Nc1cccnn1)c1ccc(Oc2ccc(Cl)cc2OC(F)F)c(Cl)c1` [Example 84, 3-chloro-4-[4-chloro-2-(difluoromethoxy)phenoxy]-N-(pyridazin-3-yl)benzenesulfonamide] gave an IC50 of over 8870 nM.
For `N#Cc1cc(S(=O)(=O)Nc2ccc(F)cn2)ccc1Oc1cccc(Cl)c1Cl` [Example 3, 3-cyano-4-(2,3-dichlorophenoxy)-N-(5-fluoropyridin-2-yl)benzenesulfonamide], the IC50 was 141 nM.
`N#Cc1ccc(Oc2cc(F)c(S(=O)(=O)Nc3cccnn3)cc2Cl)cc1Cl` [compound 227] was tested, and the IC50 was over 10000 nM.
